Measurements taken from patent US11117892B2, “Pyrrolo-pyridine derivative compound, method for preparing same, and pharmaceutical composition containing same as active ingredient for prevention or treatment of protein kinase-related diseases” (DAEGU-GYEONGBUK MEDICAL INNOVATION FOUNDATION, priority 2017, dated 2021).
Like-named read-outs stand apart in the source and are kept apart here.

How the values were obtained:
Experiment in all cases: scanMAX Kinase assay panel
Format in all cases: binding
Conditions in all cases: read-out: % control
[1] = biological target: ABL1(F317I)-nonphosphorylated (Homo sapiens (Human), UniProt P00519, F317I)
Method in brief: (§1)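 Selectivity was measured on the scanMAX platform. The compound signal minus the positive-control signal was divided by the DMSO-minus-positive-control window and multiplied by 100.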

ACVR2A = ACVR2A (Homo sapiens (Human), UniProt P27037)
Method in brief: as §1

ALK(C1156Y) = ALK(C1156Y) (Homo sapiens (Human), UniProt Q9UM73, C1156Y)
Chain of ALK(C1156Y) (Q9UM73 19-1620 C1156Y): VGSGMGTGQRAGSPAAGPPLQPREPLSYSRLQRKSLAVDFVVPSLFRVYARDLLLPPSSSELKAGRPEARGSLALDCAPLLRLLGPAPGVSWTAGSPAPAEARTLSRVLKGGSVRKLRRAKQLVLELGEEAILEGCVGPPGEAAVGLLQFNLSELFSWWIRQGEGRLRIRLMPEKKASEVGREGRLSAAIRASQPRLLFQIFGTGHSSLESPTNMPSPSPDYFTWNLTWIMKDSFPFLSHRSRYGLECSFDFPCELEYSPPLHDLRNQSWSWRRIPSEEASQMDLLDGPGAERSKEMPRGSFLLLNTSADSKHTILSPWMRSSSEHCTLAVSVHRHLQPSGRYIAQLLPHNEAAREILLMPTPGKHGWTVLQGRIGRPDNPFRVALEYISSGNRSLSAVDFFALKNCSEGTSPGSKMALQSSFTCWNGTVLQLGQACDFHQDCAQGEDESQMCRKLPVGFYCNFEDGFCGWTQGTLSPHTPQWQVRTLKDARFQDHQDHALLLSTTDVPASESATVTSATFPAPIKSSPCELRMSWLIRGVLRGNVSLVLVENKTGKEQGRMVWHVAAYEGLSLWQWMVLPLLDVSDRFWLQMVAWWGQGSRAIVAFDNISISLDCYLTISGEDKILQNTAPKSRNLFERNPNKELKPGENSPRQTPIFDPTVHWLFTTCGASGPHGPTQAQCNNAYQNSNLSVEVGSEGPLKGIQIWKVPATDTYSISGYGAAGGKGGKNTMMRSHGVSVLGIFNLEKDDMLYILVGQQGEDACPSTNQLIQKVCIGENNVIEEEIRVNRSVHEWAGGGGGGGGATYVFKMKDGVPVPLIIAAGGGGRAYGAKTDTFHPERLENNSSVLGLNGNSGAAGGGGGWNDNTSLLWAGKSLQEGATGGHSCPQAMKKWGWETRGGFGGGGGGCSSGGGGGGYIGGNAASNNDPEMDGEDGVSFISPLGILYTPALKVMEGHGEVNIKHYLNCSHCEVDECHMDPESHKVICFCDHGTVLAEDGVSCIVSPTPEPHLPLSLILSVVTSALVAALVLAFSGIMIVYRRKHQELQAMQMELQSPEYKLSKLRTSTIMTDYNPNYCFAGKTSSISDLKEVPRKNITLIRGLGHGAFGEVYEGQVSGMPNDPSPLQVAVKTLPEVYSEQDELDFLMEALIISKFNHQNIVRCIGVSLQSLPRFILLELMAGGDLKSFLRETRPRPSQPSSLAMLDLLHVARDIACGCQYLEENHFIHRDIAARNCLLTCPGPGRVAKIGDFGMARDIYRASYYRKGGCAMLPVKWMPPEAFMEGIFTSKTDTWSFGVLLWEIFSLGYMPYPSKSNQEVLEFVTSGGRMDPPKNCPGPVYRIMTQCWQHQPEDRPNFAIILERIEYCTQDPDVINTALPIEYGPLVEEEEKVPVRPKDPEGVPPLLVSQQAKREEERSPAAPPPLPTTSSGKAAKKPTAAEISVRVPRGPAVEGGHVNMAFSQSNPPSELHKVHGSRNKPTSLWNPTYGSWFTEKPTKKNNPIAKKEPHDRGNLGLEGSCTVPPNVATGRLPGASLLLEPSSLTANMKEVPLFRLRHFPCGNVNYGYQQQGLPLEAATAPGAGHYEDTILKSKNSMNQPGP
Method in brief: as §1

CAMK2G = CAMK2G (Homo sapiens (Human), UniProt Q13555)
Method in brief: as §1

CDC2L1 = CDC2L1 (Homo sapiens (Human), UniProt P21127)
Method in brief: as §1

CDK3 = CDK3 (Homo sapiens (Human), UniProt Q00526)
Method in brief: as §1

CHEK2 = CHEK2 (Homo sapiens (Human), UniProt O96017)
Method in brief: as §1

DDR1 = DDR1 (Homo sapiens (Human), UniProt Q08345)
Method in brief: as §1

EGFR(T790M) = EGFR(T790M) (Homo sapiens (Human), UniProt P00533, T790M)
Chain of EGFR(T790M) (P00533 25-1210 T790M): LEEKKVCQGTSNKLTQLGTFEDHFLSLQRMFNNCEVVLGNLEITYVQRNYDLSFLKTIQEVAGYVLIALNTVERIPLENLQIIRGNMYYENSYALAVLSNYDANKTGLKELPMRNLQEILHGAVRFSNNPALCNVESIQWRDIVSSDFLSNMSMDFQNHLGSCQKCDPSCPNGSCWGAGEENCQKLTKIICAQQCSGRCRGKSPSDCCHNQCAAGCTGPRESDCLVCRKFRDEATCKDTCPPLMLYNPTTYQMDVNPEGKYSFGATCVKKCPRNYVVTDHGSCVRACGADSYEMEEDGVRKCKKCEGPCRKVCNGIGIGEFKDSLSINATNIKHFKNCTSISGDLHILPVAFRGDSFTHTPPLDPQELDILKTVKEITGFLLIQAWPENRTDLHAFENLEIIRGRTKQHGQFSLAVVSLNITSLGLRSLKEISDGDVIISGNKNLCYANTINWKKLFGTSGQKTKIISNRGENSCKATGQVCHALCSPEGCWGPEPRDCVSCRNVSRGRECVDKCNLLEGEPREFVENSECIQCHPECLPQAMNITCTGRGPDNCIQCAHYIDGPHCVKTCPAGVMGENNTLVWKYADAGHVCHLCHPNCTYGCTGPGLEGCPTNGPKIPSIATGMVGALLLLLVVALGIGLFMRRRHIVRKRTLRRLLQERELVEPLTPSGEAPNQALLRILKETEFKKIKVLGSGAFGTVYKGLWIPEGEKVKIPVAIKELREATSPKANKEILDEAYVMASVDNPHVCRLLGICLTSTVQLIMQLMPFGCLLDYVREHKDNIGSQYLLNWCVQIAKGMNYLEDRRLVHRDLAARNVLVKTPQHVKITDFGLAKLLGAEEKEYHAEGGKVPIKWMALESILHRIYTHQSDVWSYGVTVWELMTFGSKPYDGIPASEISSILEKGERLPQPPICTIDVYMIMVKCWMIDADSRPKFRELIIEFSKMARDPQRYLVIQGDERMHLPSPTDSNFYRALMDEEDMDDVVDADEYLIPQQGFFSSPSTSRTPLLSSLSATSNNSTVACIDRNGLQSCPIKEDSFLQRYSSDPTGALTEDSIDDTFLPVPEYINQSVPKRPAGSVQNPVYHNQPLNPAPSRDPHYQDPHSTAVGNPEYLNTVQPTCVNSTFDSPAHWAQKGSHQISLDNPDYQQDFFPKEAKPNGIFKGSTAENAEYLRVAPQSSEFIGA
Method in brief: as §1

EPHA6 = EPHA6 (Homo sapiens (Human), UniProt Q9UF33)
Method in brief: as §1

EPHB2 = EPHB2 (Homo sapiens (Human), UniProt P29323)
Method in brief: as §1

ERBB4 = ERBB4 (Homo sapiens (Human), UniProt Q15303)
Method in brief: as §1

GSK3A = GSK3A (Homo sapiens (Human), UniProt P49840)
Chain of GSK3A (P49840 whole entry): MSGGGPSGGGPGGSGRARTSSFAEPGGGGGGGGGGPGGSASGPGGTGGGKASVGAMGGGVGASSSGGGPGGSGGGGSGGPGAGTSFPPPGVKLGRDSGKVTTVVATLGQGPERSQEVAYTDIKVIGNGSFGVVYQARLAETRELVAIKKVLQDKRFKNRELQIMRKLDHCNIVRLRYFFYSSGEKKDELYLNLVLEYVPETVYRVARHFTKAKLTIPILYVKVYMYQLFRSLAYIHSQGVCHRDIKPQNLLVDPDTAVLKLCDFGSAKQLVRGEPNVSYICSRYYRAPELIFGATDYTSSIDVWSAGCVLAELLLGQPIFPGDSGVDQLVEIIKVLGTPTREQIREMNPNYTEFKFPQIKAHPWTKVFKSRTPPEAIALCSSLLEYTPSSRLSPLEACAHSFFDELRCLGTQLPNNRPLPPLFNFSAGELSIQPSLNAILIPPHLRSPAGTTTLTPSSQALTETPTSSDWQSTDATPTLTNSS
Method in brief: as §1

HIPK1 = HIPK1 (Homo sapiens (Human), UniProt Q86Z02)
Method in brief: as §1

HIPK3 = HIPK3 (Homo sapiens (Human), UniProt Q9H422)
Method in brief: as §1

ICK = ICK (Homo sapiens (Human), UniProt Q9UPZ9)
Method in brief: as §1

[2] = biological target: JAK1(JH1domain-catalytic) (Homo sapiens (Human), UniProt P23458)
Method in brief: as §1

LIMK1 = LIMK1 (Homo sapiens (Human), UniProt P53667)
Method in brief: as §1

LOK = LOK (Homo sapiens (Human), UniProt O94804)
Method in brief: as §1

MAK = MAK (Homo sapiens (Human), UniProt P20794)
Method in brief: as §1

MET = MET (Homo sapiens (Human), UniProt P08581)
Method in brief: as §1

MUSK = MUSK (Homo sapiens (Human), UniProt O15146)
Method in brief: as §1

NEK2 = NEK2 (Homo sapiens (Human), UniProt P51955)
Method in brief: as §1

PCTK1 = PCTK1 (Homo sapiens (Human), UniProt Q00536)
Method in brief: as §1

PIK3CA(E545K) = PIK3CA(E545K) (Homo sapiens (Human), UniProt P42336, E545K)
Method in brief: as §1

PKN1 = PKN1 (Homo sapiens (Human), UniProt Q16512)
Method in brief: as §1

PLK1 = PLK1 (Homo sapiens (Human), UniProt P53350)
Method in brief: as §1

PRKCQ = PRKCQ (Homo sapiens (Human), UniProt Q04759)
Method in brief: as §1

RIPK4 = RIPK4 (Homo sapiens (Human), UniProt P57078)
Method in brief: as §1

[3] = biological target: RPS6KA4(Kin.Dom.2-C-terminal) (Homo sapiens (Human), UniProt O75676)
Chain of RPS6KA4(Kin.Dom.2-C-terminal) (O75676 411-674): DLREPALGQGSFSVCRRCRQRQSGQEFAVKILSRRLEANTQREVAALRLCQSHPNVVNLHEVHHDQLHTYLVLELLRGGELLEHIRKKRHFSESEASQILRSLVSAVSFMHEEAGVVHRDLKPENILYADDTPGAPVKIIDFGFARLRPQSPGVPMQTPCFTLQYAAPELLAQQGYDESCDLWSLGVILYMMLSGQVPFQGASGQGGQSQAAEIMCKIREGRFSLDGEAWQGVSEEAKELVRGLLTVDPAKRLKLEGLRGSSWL
Method in brief: as §1

[4] = biological target: RPS6KA5(Kin.Dom.2-C-terminal) (Homo sapiens (Human), UniProt O75582)
Chain of RPS6KA5(Kin.Dom.2-C-terminal) (O75582 426-687): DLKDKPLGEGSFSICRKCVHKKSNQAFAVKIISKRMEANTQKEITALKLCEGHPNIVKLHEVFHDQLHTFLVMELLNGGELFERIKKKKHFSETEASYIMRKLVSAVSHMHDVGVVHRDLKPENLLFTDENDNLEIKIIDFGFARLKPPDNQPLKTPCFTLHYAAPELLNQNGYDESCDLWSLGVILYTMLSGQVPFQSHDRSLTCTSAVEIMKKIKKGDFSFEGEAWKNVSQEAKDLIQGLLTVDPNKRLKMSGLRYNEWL
Method in brief: as §1

[5] = biological target: RSK3(Kin.Dom.2-C-terminal) (Homo sapiens (Human), UniProt Q15349)
Method in brief: as §1

TAOK1 = TAOK1 (Homo sapiens (Human), UniProt Q7L7X3)
Method in brief: as §1

TGFBR1 = TGFBR1 (Homo sapiens (Human), UniProt P36897)
Chain of TGFBR1 (P36897 34-503): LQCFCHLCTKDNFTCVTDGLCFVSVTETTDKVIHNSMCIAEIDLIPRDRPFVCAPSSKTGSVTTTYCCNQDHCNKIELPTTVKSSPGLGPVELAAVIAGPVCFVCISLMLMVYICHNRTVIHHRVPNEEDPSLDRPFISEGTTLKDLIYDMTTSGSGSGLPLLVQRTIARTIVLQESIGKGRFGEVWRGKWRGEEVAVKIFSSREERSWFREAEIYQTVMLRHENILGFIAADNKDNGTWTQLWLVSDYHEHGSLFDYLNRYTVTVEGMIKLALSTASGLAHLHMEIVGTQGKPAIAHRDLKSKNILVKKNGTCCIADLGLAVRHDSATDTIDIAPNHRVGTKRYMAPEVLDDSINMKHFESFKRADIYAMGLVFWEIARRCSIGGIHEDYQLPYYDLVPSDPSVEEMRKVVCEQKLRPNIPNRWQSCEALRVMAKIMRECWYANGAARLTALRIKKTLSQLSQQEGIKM
Method in brief: as §1

TLK1 = TLK1 (Homo sapiens (Human), UniProt Q9UKI8)
Chain of TLK1 (Q9UKI8 whole entry): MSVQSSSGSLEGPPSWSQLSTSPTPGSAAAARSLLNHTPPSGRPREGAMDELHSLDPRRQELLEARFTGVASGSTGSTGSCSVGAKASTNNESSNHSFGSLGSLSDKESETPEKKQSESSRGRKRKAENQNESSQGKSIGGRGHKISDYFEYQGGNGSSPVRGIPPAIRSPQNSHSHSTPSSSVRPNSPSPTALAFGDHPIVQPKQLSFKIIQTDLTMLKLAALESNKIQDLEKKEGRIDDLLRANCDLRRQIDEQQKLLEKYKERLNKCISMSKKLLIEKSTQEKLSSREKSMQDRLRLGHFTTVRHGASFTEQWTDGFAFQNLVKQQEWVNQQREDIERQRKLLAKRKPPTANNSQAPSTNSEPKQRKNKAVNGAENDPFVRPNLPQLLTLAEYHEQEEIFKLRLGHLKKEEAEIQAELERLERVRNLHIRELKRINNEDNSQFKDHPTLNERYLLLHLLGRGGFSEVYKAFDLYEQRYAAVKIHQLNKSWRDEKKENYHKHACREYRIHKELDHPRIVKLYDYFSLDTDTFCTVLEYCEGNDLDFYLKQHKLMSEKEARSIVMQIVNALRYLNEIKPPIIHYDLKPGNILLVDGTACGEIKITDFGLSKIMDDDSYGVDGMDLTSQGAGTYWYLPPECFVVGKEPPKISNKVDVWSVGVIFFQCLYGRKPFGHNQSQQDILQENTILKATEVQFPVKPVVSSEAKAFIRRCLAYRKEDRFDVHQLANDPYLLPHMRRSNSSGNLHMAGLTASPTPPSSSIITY
Method in brief: as §1

TNK2 = TNK2 (Homo sapiens (Human), UniProt Q07912)
Method in brief: as §1

TNNI3K = TNNI3K (Homo sapiens (Human), UniProt Q59H18)
Method in brief: as §1

p38-alpha = p38-alpha (Homo sapiens (Human), UniProt Q16539)
Method in brief: as §1

SMILES | remaining binding at 1 µM [1] [%] | remaining binding at 1 µM (ACVR2A) [%] | remaining binding at 1 µM (ALK(C1156Y)) [%] | remaining binding at 1 µM (CAMK2G) [%] | remaining binding at 1 µM (CDC2L1) [%] | remaining binding at 1 µM (CDK3) [%] | remaining binding at 1 µM (CHEK2) [%] | remaining binding at 1 µM (DDR1) [%] | remaining binding at 1 µM (EGFR(T790M)) [%] | remaining binding at 1 µM (EPHA6) [%] | remaining binding at 1 µM (EPHB2) [%] | remaining binding at 1 µM (ERBB4) [%] | remaining binding at 1 µM (HIPK1) [%] | remaining binding at 1 µM (HIPK3) [%] | remaining binding at 1 µM (ICK) [%] | remaining binding at 1 µM [2] [%] | remaining binding at 1 µM (LIMK1) [%] | remaining binding at 1 µM (LOK) [%] | remaining binding at 1 µM (MAK) [%] | remaining binding at 1 µM (MET) [%] | other results
CCNc1cc(Nc2ccc(C(=O)N3CCC(N4CCOCC4)CC3)cc2OC)nc2[nH]cc(C#N)c12 [Example 18, 4-(ethylamino)-6-((2-methoxy-4-(4-morpholinopiperidine-1-carbonyl)phenyl)amino)-1H-pyrrolo[2,3-b]pyridine-3-carbonitrile] | 89 | 100 | 2.4 | 77 | 100 | 97 | 4.1 | 98 | 100 | 98 | 87 | 85 | 63 | 74 | 84 | 100 | 92 | 91 | 92 | 100 | remaining binding at 1 µM (GSK3A; GSK3A, 1 uM): 100%; remaining binding at 1 µM (MUSK): 97%; remaining binding at 1 µM (NEK2): 100%; remaining binding at 1 µM (PCTK1): 98%; remaining binding at 1 µM (PIK3CA(E545K)): 92%; remaining binding at 1 µM (PKN1): 85%; remaining binding at 1 µM (PLK1): 41%; remaining binding at 1 µM (PRKCQ): 94%; remaining binding at 1 µM (RIPK4): 69%; remaining binding at 1 µM [3]: 0.3%; remaining binding at 1 µM [4]: 10%; remaining binding at 1 µM [5]: 12%; remaining binding at 1 µM (TAOK1): 82%; remaining binding at 1 µM (TGFBR1): 100%; remaining binding at 1 µM (TLK1): 100%; remaining binding at 1 µM (TNK2): 92%; remaining binding at 1 µM (TNNI3K): 91%; remaining binding at 1 µM (p38-alpha): 100%
CCNc1cc(Nc2ccc(C(=O)N3CCC(N4CCOCC4)CC3)cc2OC)nc2[nH]cc(C(F)(F)F)c12 [Example 57, (4-((4-(ethylamino)-3-(trifluoromethyl)-1H-pyrrolo[2,3-b]pyridin-6-yl)amino)-3-methoxyphenyl) (4-morpholinopiperidin-1-yl)methanone] | 96 | 99 | 3.5 | 72 | 90 | 94 | 47 | 98 | 88 | 87 | 100 | 82 | 54 | 71 | 100 | 97 | 99 | 84 | 95 | 100 | remaining binding at 1 µM (GSK3A): 90%; remaining binding at 1 µM (MUSK): 100%; remaining binding at 1 µM (NEK2): 94%; remaining binding at 1 µM (PCTK1): 83%; remaining binding at 1 µM (PIK3CA(E545K)): 73%; remaining binding at 1 µM (PKN1): 71%; remaining binding at 1 µM (PLK1): 100%; remaining binding at 1 µM (PRKCQ): 96%; remaining binding at 1 µM (RIPK4): 95%; remaining binding at 1 µM [3]: 100%; remaining binding at 1 µM [4]: 83%; remaining binding at 1 µM [5]: 82%; remaining binding at 1 µM (TAOK1): 100%; remaining binding at 1 µM (TGFBR1): 69%; remaining binding at 1 µM (TLK1): 73%; remaining binding at 1 µM (TNK2): 86%; remaining binding at 1 µM (TNNI3K): 100%; remaining binding at 1 µM (p38-alpha): 83%
